According to patent US6407288B1, “Naphthylsalicylanilides as antimicrobial and antiinflammatory agents” (The Research Foundation of State University of New York, priority 2000, dated 2002):

What was measured:
S. mutans = test: MIC microdilution, gram positive; assay type: cell-based, Streptococcus mutans; settings: Table 1, Gram Positive
Protocol: (§1) The MIC's for the compounds were determined by a modified microdilution tube dilution method described in “Methods for Dilution Antimicrobial Susceptibility Tests for Bacteria that Grow Aerobically” (National Committee for Clinical Laboratory Standards Approved Standards, 1997, NCCLS document M7-A4). In general the modifications were made because of the unique growth requirements for the fastidious oral organisms and for those bacteria that require anaerobic conditions. Reference is also made to “Methods for Antimicrobial Susceptibility of Anaerobic Bacteria” (National Committee for Clinical Laboratory Standards Approved Standards, 1997, NCCLS document M11-A4). Briefly, the methods were as follows. Cultures were grown for 18-24hrs (aerobic bacteria) or 48-72 hrs (anaerobic bacteria) in the appropriate medium. For aerobic bacteria full strength brain heart infusion medium (BHI, Difco) was used. For anaerobic bacteria, half strength BHI (18.5 g/L) was supplemented by adding yeast extract (10 g/L), hemin (0.29 mL of a stock solution containing 0.1 g/200 mL dH2O) and menadione (15 mL of a stock solution containing 0.15 mL in 30 mL 95% EtOH) was used. Initial cultures were diluted to approximately 1×10^8 CFU/mL for use as an inoculum. Each assay received 10 μL of the inoculum. The drugs were prepared from a stock solution contained in dimethyl sulfoxide (DMSO) and diluted into the culture medium. Final concentrations of the drugs ranged from 50 to 0.05 μg/assay. The tests were run in duplicate and were incubated appropriately with regard to oxygen requirements for 24 to 48 hrs as required. Anaerobic incubation was an atmosphere of 5% CO2, 10% H2, with the balance N2. The lowest concentration of an antimicrobial agent at which no visible growth is noted was referred to as the MIC.

S. sanguis = test: MIC microdilution, gram positive; assay type: cell-based, Streptococcus sanguis; settings: Table 1, Gram Positive
Protocol: as §1

S.salivarius = test: MIC microdilution, gram positive; assay type: cell-based, Streptococcus salivarius; settings: Table 1, Gram Positive
Protocol: as §1

P. acnes 11828 = test: MIC microdilution, gram positive; assay type: cell-based, Propionibacterium acnes; settings: Table 1, Gram Positive
Protocol: as §1

P. acnes 6922 = test: MIC microdilution, gram positive; assay type: cell-based, Propionibacterium acnes; settings: Table 1, Gram Positive
Protocol: as §1

A. viscosus = test: MIC microdilution, gram positive; assay type: cell-based, Actinomyces viscosus; settings: Table 2, Gram Positive
Protocol: as §1

S. aureus = test: MIC microdilution, gram positive; assay type: cell-based, Staphlococcus aureus
Protocol: (§2) The MIC's for the compounds were determined by a modified microdilution tube dilution method described in “Methods for Dilution Antimicrobial Susceptibility Tests for Bacteria that Grow Aerobically” (National Committee for Clinical Laboratory Standards Approved Standards, 1997, NCCLS document M7-A4). In general the modifications were made because of the unique growth requirements for the fastidious oral organisms and for those bacteria that require anaerobic conditions. Reference is also made to “Methods for Antimicrobial Susceptibility of Anaerobic Bacteria” (National Committee for Clinical Laboratory Standards Approved Standards, 1997, NCCLS document M11-A4).
(§3) Briefly, the methods were as follows. Cultures were grown for 18-24hrs (aerobic bacteria) or 48-72 hrs (anaerobic bacteria) in the appropriate medium. For aerobic bacteria full strength brain heart infusion medium (BHI, Difco) was used. For anaerobic bacteria, half strength BHI (18.5 g/L) was supplemented by adding yeast extract (10 g/L), hemin (0.29 mL of a stock solution containing 0.1 g/200 mL dH2O) and menadione (15 mL of a stock solution containing 0.15 mL in 30 mL 95% EtOH) was used. Initial cultures were diluted to approximately 1×10^8 CFU/mL for use as an inoculum. Each assay received 10 μL of the inoculum. The drugs were prepared from a stock solution contained in dimethyl sulfoxide (DMSO) and diluted into the culture medium. Final concentrations of the drugs ranged from 50 to 0.05 μg/assay. The tests were run in duplicate and were incubated appropriately with regard to oxygen requirements for 24 to 48 hrs as required. Anaerobic incubation was an atmosphere of 5% CO2, 10% H2, with the balance N2. The lowest concentration of an antimicrobial agent at which no visible growth is noted was referred to as the MIC.
(§4) This embodiment describes the sensitivity of various staphylococcus strains to the compounds of the present invention. The staphylococcus species R is a strain 00-045-1209 from the Children's Hospital in Buffalo. It was isolated from the peritoneal cavity (fluid culture) of an individual. It was coagulase negative. The sensitivity of this strain was tested agaisnt several known antibiotics.

Lact 7496 = test: MIC microdilution, gram positive; assay type: cell-based, Lactobacillus rhamnosus (casei); settings: Table 2, Gram Positive
Protocol: as §1

M. luteus = test: MIC microdilution, gram positive; assay type: cell-based, Micrococcus luteus; settings: Table 2, Gram Positive
Protocol: as §1

Fuso. 25586 = test: MIC microdilution, gram negative; assay type: cell-based, Fusobacterium nucleatum
Protocol: (§5) The MIC's for the compounds were determined by a modified microdilution tube dilution method described in “Methods for Dilution Antimicrobial Susceptibility Tests for Bacteria that Grow Aerobically” (National Committee for Clinical Laboratory Standards Approved Standards, 1997, NCCLS document M7-A4). In general the modifications were made because of the unique growth requirements for the fastidious oral organisms and for those bacteria that require anaerobic conditions. Reference is also made to “Methods for Antimicrobial Susceptibility of Anaerobic Bacteria” (National Committee for Clinical Laboratory Standards Approved Standards, 1997, NCCLS document M11-A4). Briefly, the methods were as follows. Cultures were grown for 18-24hrs (aerobic bacteria) or 48-72 hrs (anaerobic bacteria) in the appropriate medium. For aerobic bacteria full strength brain heart infusion medium (BHI, Difco) was used. For anaerobic bacteria, half strength BHI (18.5 g/L) was supplemented by adding yeast extract (10 g/L), hemin (0.29 mL of a stock solution containing 0.1 g/200 mL dH2O) and menadione (15 mL of a stock solution containing 0.15 mL in 30 mL 95% EtOH) was used. Initial cultures were diluted to approximately 1×10^8 CFU/mL for use as an inoculum. Each assay received 10 μL of the inoculum. The drugs were prepared from a stock solution contained in dimethyl sulfoxide (DMSO) and diluted into the culture medium. Final concentrations of the drugs ranged from 50 to 0.05 μg/assay. The tests were run in duplicate and were incubated appropriately with regard to oxygen requirements for 24 to 48 hrs as required. Anaerobic incubation was an atmosphere of 5% CO2, 10% H2, with the balance N2. The lowest concentration of an antimicrobial agent at which no visible growth is noted was referred to as the MIC. […] The method used was the same as described in Example 1.

Aa Y4 = test: MIC microdilution, gram negative; assay type: cell-based, Actinobacillus actinomycetemcomitans
Protocol: as §5

P. ging 381 = test: MIC microdilution, gram negative; assay type: cell-based, Porphyromonas gingivalis
Protocol: as §5

Pg 53977 = test: MIC microdilution, gram negative; assay type: cell-based, Porphyromonas gingivalis
Protocol: as §5

B. fragilis = test: MIC microdilution, gram negative; assay type: cell-based, Bacteroides fraglis
Protocol: as §5

Str. pn. R = test: Mean Streptococcus MIC; assay type: cell-based; settings: Table 5, mean; strain resistant to penicillin and erythromycin
Protocol: as §2, §3
(§6) This embodiment illustrates the efficacy of the compounds of the present invention against Streptococcus strains. One of the strains, Str.pn.R was obtained from the Children's Hospital in Buffalo (strain 00-041-0614). […] The sensitivity of this strain was tested against several known antibiotics.

Str. pn = test: Mean Streptococcus MIC; assay type: cell-based; settings: Table 5, mean
Protocol: as §2, §3, §6

S. species R = test: Staphylococcus MIC; assay type: cell-based, staphylococcus species R; settings: second Table 5 (Example 5); strain 00-045-1209
Protocol: as §2, §3, §4

[1] = system: Str.pn.R (strain 00-041-0614); test: Sensitivity of strain to known antibiotics; assay type: cell-based, Streptococcus; settings: sensitive / resistant
Protocol: as §6

[2] = system: staphylococcus species R (strain 00-045-1209); test: Sensitivity of strain to known antibiotics; assay type: cell-based; settings: sensitive / resistant
Protocol: as §4

[3] = Table 3 printed a second time, Gram Negative

O=C(c1ccc(O)c(C(=O)Nc2cccc(C(F)(F)F)c2)c1)c1ccc2ccccc2c1 [NA2mF]
MIC S. mutans (S. mutans): NE (NE indicates that the drug was not effective at a concentration >50 micrograms/ml)
MIC S. sanguis (S. sanguis): 0.8 micrograms/ml
MIC S.salivarius (S.salivarius): 50 micrograms/ml
MIC P. acnes 11828 (P. acnes 11828): 0.4 micrograms/ml
MIC P. acnes 6922 (P. acnes 6922): 0.4 micrograms/ml
MIC A. viscosus (A. viscosus): NE (NE indicates that the drug was not effective at a concentration >50 micrograms/ml)
MIC S. aureus (S. aureus; Table 2, Gram Positive): NE (NE indicates that the drug was not effective at a concentration >50 micrograms/ml)
MIC S. aureus (S. aureus; second Table 5 (Example 5)): NE (NE indicates that the drug was not effective at a concentration >50 micrograms/ml)
MIC Lact 7496 (Lact 7496): 1.6 micrograms/ml
MIC M. luteus (M. luteus): 0.8 micrograms/ml
MIC Fuso. 25586 (Fuso. 25586; Table 3, Gram Negative): NE (NE indicates that the drug was not effective at a concentration >50 micrograms/ml)
MIC Fuso. 25586 (Fuso. 25586; [3]): NE (NE indicates that the drug was not effective at a concentration >50 micrograms/ml)
MIC Aa Y4 (Aa Y4; Table 3, Gram Negative): NE (NE indicates that the drug was not effective at a concentration >50 micrograms/ml)
MIC Aa Y4 (Aa Y4; [3]): NE (NE indicates that the drug was not effective at a concentration >50 micrograms/ml)
MIC P. ging 381 (P. ging 381; Table 3, Gram Negative): <0.4 micrograms/ml
MIC P. ging 381 (P. ging 381; [3]): <0.4 micrograms/ml
MIC Pg 53977 (Pg 53977; Table 3, Gram Negative): <0.4 micrograms/ml
MIC Pg 53977 (Pg 53977; [3]): <0.4 micrograms/ml
MIC B. fragilis (B. fragilis; Table 3, Gram Negative): NE (NE indicates that the drug was not effective at a concentration >50 micrograms/ml)
MIC B. fragilis (B. fragilis; [3]): NE (NE indicates that the drug was not effective at a concentration >50 micrograms/ml)
Mean Streptococcus MIC values Str. pn. R (Str. pn. R): 0.78 micrograms/ml
Mean Streptococcus MIC values Str. pn (Str. pn): 0.84 micrograms/ml
MIC S. species R (S. species R): 25.0 micrograms/ml

N#Cc1ccc(NC(=O)c2cc(C(=O)c3ccc4ccccc4c3)ccc2O)cc1 [NA2pC]
MIC S. mutans (S. mutans): 1.6 micrograms/ml
MIC S. sanguis (S. sanguis): 6.3 micrograms/ml
MIC S.salivarius (S.salivarius): 50 micrograms/ml
MIC P. acnes 11828 (P. acnes 11828): 6.3 micrograms/ml
MIC P. acnes 6922 (P. acnes 6922): 6.3 micrograms/ml
MIC A. viscosus (A. viscosus): 1.6 micrograms/ml
MIC S. aureus (S. aureus; Table 2, Gram Positive): 6.3 micrograms/ml
MIC S. aureus (S. aureus; second Table 5 (Example 5)): 6.3 micrograms/ml
MIC Lact 7496 (Lact 7496): 6.3 micrograms/ml
MIC M. luteus (M. luteus): 3.1 micrograms/ml
MIC Fuso. 25586 (Fuso. 25586; Table 3, Gram Negative): 12.5 micrograms/ml
MIC Fuso. 25586 (Fuso. 25586; [3]): 12.5 micrograms/ml
MIC Aa Y4 (Aa Y4; Table 3, Gram Negative): 6.3 micrograms/ml
MIC Aa Y4 (Aa Y4; [3]): 6.3 micrograms/ml
MIC P. ging 381 (P. ging 381; Table 3, Gram Negative): 0.4 micrograms/ml
MIC P. ging 381 (P. ging 381; [3]): 0.4 micrograms/ml
MIC Pg 53977 (Pg 53977; Table 3, Gram Negative): 0.4 micrograms/ml
MIC Pg 53977 (Pg 53977; [3]): 0.4 micrograms/ml
MIC B. fragilis (B. fragilis; Table 3, Gram Negative): 3.1 micrograms/ml
MIC B. fragilis (B. fragilis; [3]): 3.1 micrograms/ml
Mean Streptococcus MIC values Str. pn. R (Str. pn. R): 3.12 micrograms/ml
Mean Streptococcus MIC values Str. pn (Str. pn): 0.58 micrograms/ml
MIC S. species R (S. species R): 12.5 micrograms/ml

CO[C@H]1/C=C/O[C@@]2(C)Oc3c(C)c(O)c4c(O)c(c(/C=N/N5CCN(C)CC5)c(O)c4c3C2=O)NC(=O)/C(C)=C\C=C\[C@H](C)[C@H](O)[C@@H](C)[C@@H](O)[C@@H](C)[C@H](OC(C)=O)[C@@H]1C [Rifampin]
sensitivity of strain Str.pn.R to known antibiotics [1]: sensitive

N[C@@H]1[C@H]2CN(c3nc4c(cc3F)c(=O)c(C(=O)O)cn4-c3ccc(F)cc3F)C[C@@H]12 [Trovoflox]
sensitivity of strain Str.pn.R to known antibiotics [1]: sensitive

CN[C@H](CC(C)C)C(=O)N[C@H]1C(=O)N[C@@H](CC(N)=O)C(=O)N[C@H]2C(=O)N[C@H]3C(=O)N[C@H](C(=O)N[C@H](C(=O)O)c4cc(O)cc(O)c4-c4cc3ccc4O)[C@H](O)c3ccc(c(Cl)c3)Oc3cc2cc(c3O[C@@H]2O[C@H](CO)[C@@H](O)[C@H](O)[C@H]2O[C@H]2C[C@](C)(N)[C@H](O)[C@H](C)O2)Oc2ccc(cc2Cl)[C@H]1O [Vancomycin]
sensitivity of strain Str.pn.R to known antibiotics [1]: sensitive
sensitivity of staphylococcus species R to known antibiotics [2]: sensitive

CC1(C)S[C@@H]2[C@H](NC(=O)[C@H](N)c3ccc(O)cc3)C(=O)N2[C@H]1C(=O)O [amoxicillin]
sensitivity of staphylococcus species R to known antibiotics [2]: resistant

CC[C@H]1OC(=O)[C@H](C)[C@@H](O[C@H]2C[C@@](C)(OC)[C@@H](O)[C@H](C)O2)[C@H](C)[C@@H](O[C@@H]2O[C@H](C)C[C@H](N(C)C)[C@H]2O)[C@](C)(O)C[C@@H](C)CN(C)[C@H](C)[C@@H](O)[C@]1(C)O [azithromycin]
sensitivity of staphylococcus species R to known antibiotics [2]: resistant

CO/N=C(\C(=O)N[C@@H]1C(=O)N2C(C(=O)O)=C(COC(C)=O)CS[C@H]12)c1csc(N)n1 [cefotaxime]
sensitivity of staphylococcus species R to known antibiotics [2]: resistant

Cc1onc(-c2ccccc2)c1C(=O)N[C@@H]1C(=O)N2[C@@H]1SC(C)(C)[C@@H]2C(=O)O [oxacillin]
sensitivity of staphylococcus species R to known antibiotics [2]: resistant

penicillin
sensitivity of strain Str.pn.R to known antibiotics [1]: resistant
